The source of these data is patent US9238658B2, “Substituted piperidinyl-carboxamide derivatives useful as SCD 1 inhibitors” (Janssen Pharmaceutica NV, priority 2011, dated 2016).

The structures appear in SMILES notation.

For the assay, the target named is SCD1 (Rattus norvegicus (Rat), UniProt P07308). The assay is described as follows: SCD1 enzymatic assay in rat liver microsomes (RLM). In kind it is biochemical. The settings on record: for inhibition at 1 µM: 1 μM test compound. The protocol:
Step 1: Preparation of Rat Liver Microsome (RLM)
Sprague Dawley rats from Charles River (200-225 g) underwent 2-cycle of fast-re-feeding (24-hour fast followed by 24-hour feeding with fat-free high carbohydrate diet, Research Diet, D00042802). The livers were removed and homogenized 1:4 (w/v) with pre-chilled, homogenizing buffer (10 mM Tris-HCl, 0.25 M sucrose, 1 mM EDTA, pH 7.4, supplemented with protease inhibitor cocktail). The homogenate was spun at 12,000×g for 15 min at 4° C. The supernatant was then re-centrifuged at 100,000×g for 60 min at 4° C. The pellet was re-suspended in 2 ml pre-chilled […] potassium phosphate buffer, pH 7.2, 10 mM EDTA at a concentration of 20 mg/ml. The resulting rat liver microsome (RLM) preparation was stored at […].
Step 2: SCD1 Enzymatic Assay in RLM:
The SCD1 enzymatic assay was done in a volume of 50 μL using 10 μg of RLM (prepared as described above) in a 96-well polypropylene plate (enzyme reaction buffer contains 0.1 M K-Phosphate Buffer, 10 mM ATP, 6 mM MgCl2, 1 mM CoA, 1 mM β-NADH, 1.6 mM L-glutathione, 20 μM Stearoyl-CoA). Stearoyl-[9,10-^3H]—CoA (ARC-0390, 1 mCi/mL, 60 Ci/mmol,) was added at a final concentration of 2 μCi/mL. Test compound was then added to the reaction mixture at the selected concentration. After incubation at room temperature for 2 hours, 5 μL 1 N HCl was added to stop the reaction, followed by addition of 25 μL of 10% charcoal. The reaction mixture was then transferred to 96-well Multiscreen plate (Millipore, Cat# MSFCN6B50). [^3H2O] was collected into Opti-plate (PE, Cat #6005290) by centrifuge, at 1,000 rpm for 2 minutes. 150 μL Microscint 40 (PE, cat #6013641) was then added to each well and counted on Topcount for [^3H] counts per minute (cpm). The measured cpm values were fitted with Sigmoidal dose-response curve fit with Graphpad Prism.
For orientation: Liver microsomes are a subcellular fraction often used to study metabolism.

Chain of SCD1 (P07308 whole entry): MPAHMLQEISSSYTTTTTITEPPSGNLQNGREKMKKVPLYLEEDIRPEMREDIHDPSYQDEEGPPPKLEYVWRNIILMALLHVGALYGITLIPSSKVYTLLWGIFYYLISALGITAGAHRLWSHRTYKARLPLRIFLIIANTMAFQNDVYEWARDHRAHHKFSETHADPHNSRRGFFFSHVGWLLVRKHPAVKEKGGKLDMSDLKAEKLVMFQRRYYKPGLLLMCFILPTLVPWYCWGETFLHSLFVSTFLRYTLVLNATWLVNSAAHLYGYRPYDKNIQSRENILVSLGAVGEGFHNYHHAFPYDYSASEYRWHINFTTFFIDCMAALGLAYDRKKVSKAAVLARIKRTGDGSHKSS

A word on the inhibition: it is the change of the read-out against control, counted positive when it falls. Regarding `CCN1CCc2nc(NC(=O)N3CCC(N4CCc5ccc(F)cc54)CC3)sc2C1` [Compound 53, N-(5-ethyl-4,5,6,7-tetrahydrothiazolo[5,4-c]pyridin-2-yl)-4-(6-fluoroindolin-1-yl)piperidine-1-carboxamide], the inhibition at 1 µM was 34%.

As for `CNC(=O)c1cccc(NC(=O)N2CCC(c3noc4cc(F)ccc34)CC2)c1` [Compound 10, 4-(6-fluorobenzo[d]isoxazol-3-yl)-N-(3-(methylcarbamoyl)phenyl)piperidine-1-carboxamide], the inhibition at 1 µM stood at 23%.

On to `COC(=O)Cc1cnc(NC(=O)N2CCC(N3CCc4ccc(F)cc43)CC2)s1` [Compound 49, methyl 2-(2-(4-(6-fluoroindolin-1-yl)piperidine-1-carboxamido)thiazol-5-yl)acetate], for which the inhibition at 1 µM stood at 48%.

Broadly, the IC50 is the concentration that inhibits the measured activity by half. Low values mean greater potency, high ones weaker potency. With `NC(=O)Cc1csc(NC(=O)N2CCC(N3CCc4ccc(F)cc43)CC2)n1` [Compound 30, N-(4-(2-amino-2-oxoethyl)thiazol-2-yl)-4-(6-fluoroindolin-1-yl)piperidine-1-carboxamide], the IC50 was determined as 845 nM and at 1 µM the inhibition was 57%.

In the case of `COC(=O)Cc1cnc(NC(=O)N2CCC(c3noc4ccc(F)cc34)CC2)s1` [Compound 52, methyl 2-(2-(4-(5-fluorobenzo[d]isoxazol-3-yl)piperidine-1-carboxamido)thiazol-5-yl)acetate], the inhibition at 1 µM is 15%. On the same count and under the same terms, the result for `CNC(=O)c1cccc(NC(=O)N2CCC(c3c[nH]c4ccccc34)CC2)c1` [Compound 64, 4-(1H-indol-3-yl)-N-(3-(methylcarbamoyl)phenyl)piperidine-1-carboxamide] reads 15%.

On to `CNC(=O)c1csc(NC(=O)N2CCC(N3CCc4ccc(F)cc43)CC2)n1` [Compound 23, 2-(4-(6-fluoroindolin-1-yl)piperidine-1-carboxamido)-N-methylthiazole-4-carboxamide], for which the IC50 is greater than 1000 nM and testing at 1 µM gave an inhibition of 20%. As for `O=C(Nc1ccc(CO)cc1)N1CCC(N2CCc3ccc(F)cc32)CC1` [Compound 44, 4-(6-fluoroindolin-1-yl)-N-(4-(hydroxymethyl)phenyl)piperidine-1-carboxamide], the inhibition at 1 µM was determined as 31%. `CCOC(=O)c1ccc(NC(=O)N2CCC(N3CCc4ccc(F)cc43)CC2)cc1` [Compound 42, ethyl 4-(4-(6-fluoroindolin-1-yl)piperidine-1-carboxamido)benzoate] registered an inhibition at 1 µM of 21%. `CCOC(=O)c1csc(NC(=O)N2CCC(N3CCc4ccc(F)cc43)CC2)n1` [Compound 22, ethyl 2-(4-(6-fluoroindolin-1-yl)piperidine-1-carboxamido)thiazole-4-carboxylate] displayed an IC50 greater than 1000 nM and an inhibition at 1 µM of 8%. With `O=C(Nc1nc(CN2CCCCC2)cs1)N1CCC(N2CCc3ccc(F)cc32)CC1` [Compound 31, 4-(6-fluoroindolin-1-yl)-N-(4-(piperidin-1-ylmethyl)thiazol-2-yl)piperidine-1-carboxamide], the inhibition at 1 µM turned out to be 44%. In turn, `CCCc1nc2ccc(NC(=O)N3CCC(c4noc5ccc(F)cc45)CC3)cc2o1` [Compound 7, 4-(5-fluorobenzo[d]isoxazol-3-yl)-N-(2-propylbenzo[d]oxazol-6-yl)piperidine-1-carboxamide] yielded an IC50 of 1010 nM and an inhibition at 1 µM of 55%.

In turn, `CC(C)(C)OC(=O)N1CCc2nc(NC(=O)N3CCC(N4CCc5ccc(F)cc54)CC3)sc2C1` [Compound 34, tert-butyl 2-(4-(6-fluoroindolin-1-yl)piperidine-1-carboxamido)-6,7-dihydrothiazolo[5,4-c]pyridine-5(4H)-carboxylate] registered an inhibition at 1 µM of 35%.

In turn, `CCOC(=O)c1cccc(NC(=O)N2CCC(N3CCc4ccc(F)cc43)CC2)c1` [Compound 41, ethyl 3-(4-(6-fluoroindolin-1-yl)piperidine-1-carboxamido)benzoate] registered an IC50 of 534 nM and an inhibition at 1 µM of 53%. As to `CCOC(=O)Cc1csc(NC(=O)N2CCC(c3noc4ccc(F)cc34)CC2)n1` [Compound 51, ethyl 2-(2-(4-(5-fluorobenzo[d]isoxazol-3-yl)piperidine-1-carboxamido)thiazol-4-yl)acetate], 579 nM corresponded to half-maximal inhibition (IC50) and the inhibition at 1 µM came to 68%.

Regarding `Cc1csc(NC(=O)N2CCC(c3noc4cc(F)ccc34)CC2)n1` [Compound 11, 4-(6-fluorobenzo[d]isoxazol-3-yl)-N-(4-methylthiazol-2-yl)piperidine-1-carboxamide], the inhibition at 1 µM came to 40%. Consider `NC(=O)c1csc(NC(=O)N2CCC(N3CCc4ccc(F)cc43)CC2)n1` [Compound 26, 2-(4-(6-fluoroindolin-1-yl)piperidine-1-carboxamido)thiazole-4-carboxamide], for which half-maximal inhibition (IC50) was put at 682 nM and the inhibition at 1 µM is 62%. `O=C(Nc1ccc2c(c1)CNCC2)N1CCC(N2CCc3ccc(F)cc32)CC1` [Compound 46, 4-(6-fluoroindolin-1-yl)-N-(1,2,3,4-tetrahydroisoquinolin-7-yl)piperidine-1-carboxamide] showed an inhibition at 1 µM of 27%. In turn, `CCCCc1cc(NC(=O)N2CCC(c3noc4ccc(F)cc34)CC2)ccc1F` [Compound 8, N-(3-butyl-4-fluorophenyl)-4-(5-fluorobenzo[d]isoxazol-3-yl)piperidine-1-carboxamide] returned an inhibition at 1 µM of 12%. Same read-out and setting: the result for `NC(=O)CN1CCc2nc(NC(=O)N3CCC(N4CCc5ccc(F)cc54)CC3)sc2C1` [Compound 57, N-(5-(2-amino-2-oxoethyl)-4,5,6,7-tetrahydrothiazolo[5,4-c]pyridin-2-yl)-4-(6-fluoroindolin-1-yl)piperidine-1-carboxamide] reads 38%; that for `CC(=O)N1CCc2nc(NC(=O)N3CCC(N4CCc5ccc(F)cc54)CC3)sc2C1` [Compound 40, N-(5-acetyl-4,5,6,7-tetrahydrothiazolo[5,4-c]pyridin-2-yl)-4-(6-fluoroindolin-1-yl)piperidine-1-carboxamide], 46%. Same read-out and setting: the figure for `CNC(=O)c1cccc(NC(=O)N2CCC(N3C(=O)Cc4ccccc43)CC2)c1` [Compound 1, N-(3-(methylcarbamoyl)phenyl)-4-(2-oxoindolin-1-yl)piperidine-1-carboxamide] is 7%. `CNC(=O)Cc1csc(NC(=O)N2CCC(N3CCc4ccc(F)cc43)CC2)n1` [Compound 28, 4-(6-fluoroindolin-1-yl)-N-(4-(2-(methylamino)-2-oxoethyl)thiazol-2-yl)piperidine-1-carboxamide] displayed an IC50 greater than 1000 nM and an inhibition at 1 µM of 22%. In the case of `CC(C)(C)[Si](C)(C)OC1CCc2nc(NC(=O)N3CCC(N4CCc5ccc(F)cc54)CC3)sc2C1` (stereo not drawn) [Compound 32, N-(6-((tert-butyldimethylsilyl)oxy)-4,5,6,7-tetrahydrobenzo[d]thiazol-2-yl)-4-(6-fluoroindolin-1-yl)piperidine-1-carboxamide], testing at 1 µM gave an inhibition of 31%. The same measure, in the same setting: the figure for `CCOC(=O)CN1CCc2nc(NC(=O)N3CCC(N4CCc5ccc(F)cc54)CC3)sc2C1` [Compound 56, ethyl 2-(2-(4-(6-fluoroindolin-1-yl)piperidine-1-carboxamido)-6,7-dihydrothiazolo[5,4-c]pyridin-5(4H)-yl)acetate] is 42%.
